US4217274A, “Methoxyethoxymethyl esters of penicillins” (Bristol-Myers Company, priority 1978, dated 1980)
In brackets after ≈: the same amount, converted by molar mass. Read-outs that look alike come from different tables or passages of the source.

What was measured:
Assay in all cases: MIC, antibiotic dilution technique (agar)
Str. pyogenes = type: cell-based, S. pyogenes; settings: Streptococcus pyogenes; Table 1, Str. pyogenes
Source text: (§1) Bacteria. The organisms, preponderantly of recent clinical origin, were obtained from numerous sources of broad geographical distribution. Obligate anaerobes were maintained in Egg Meat Medium (Difco); Mycobacterium was stored on Lowenstein Medium (Jensen Modification; Difco). The techniques of storing all other organisms have been described previously [Leitner et al., BL-S640, A Cephalosporin with a Broad Spectrum of Antibacterial Activity: Properties in vitro, Antimicrob. Agents Chemother., 7, 298-305 (1975)].
(§2) Antibiotic spectrum. The growth-inhibitory activity of the compounds was determined by the antibiotic dilution technique. Procedures were as follows:
(§3) Aerobic organisms (excluding Mycobacterium). Except for Haemophilus and Neisseria, the assay was performed in Mueller-Hinton Medium (Difco). For fastidious organisms, i.e., Streptococcus, Listeria, Pasteurella, Bordetella and Vibrio, the medium was supplemented with 4% defibrinated sheep blood. The antibiotic susceptibility of Haemophilus and Neisseria was determined in GC Medium Base (BBL) supplemented with 1% Hemoglobin (BBL) and 1% Isovitalex (BBL).
(§4) Overnight broth cultures of an exponentially growing culture (Neisseria) served as the source of inoculum. A volume of approximately 0.003 ml. of the undiluted or diluted culture was applied to the surface of the antibiotic-containing agar plates with the inoculator of Steers et al., An Inocula Replicating Apparatus for Routine Testing of Bacterial Susceptibility to Antibiotics, Antibiot. Chemother., 9, 307-311, (1959). Cultures of Neisseria, Streptococcus pneumoniae, S. viridans and S. pyogenes were used without dilution; those of all other organisms were diluted 100-fold. The inoculum contained about 10^3 viable cells for Neisseria, 10^5 for S. pneumoniae and S. pyogenes, 10^6 for S. viridans and 10^4 for all other species.

E. Coli = type: cell-based; settings: Escherichia coli, Table 1, E. Coli
Source text: as §1, §2, §3, §4

Ent. cloacae = type: cell-based; settings: Enterobacter cloacae, Table 1, Ent. cloacae, read-out: MIC
Source text: as §1, §2, §3, §4

K. pneumoniae = type: cell-based; settings: Klebsiella pneumoniae, Table 1, K. pneumoniae, read-out: MIC
Source text: as §1, §2, §3, §4

Pr. mirabilis = type: cell-based; settings: Proteus mirabilis; Table 1, Pr. mirabilis
Source text: as §1, §2, §3, §4

Pr. morganii = type: cell-based; settings: Morganella morganii; Table 1, Pr. morganni; read-out: MIC
Source text: as §1, §2, §3, §4

Pr. rettgeri = type: cell-based; settings: Providencia rettgeri; Table 1, Pr. rettgeri
Source text: as §1, §2, §3, §4

Pr. vulgaris = type: cell-based; settings: Proteus vulgaris; Table 1, Pr. vulgaris
Source text: as §1, §2, §3, §4

Ps. aeruginosa = type: cell-based; settings: Pseudomonas aeruginosa, Table 1, Ps. aeruginosa, read-out: MIC
Source text: as §1, §2, §3, §4

S. aureus Meth-Res. = type: cell-based; settings: Staphylococcus aureus; Table 1, S. aureus Meth-Res.
Source text: as §1, §2, §3, §4

S. aureus Pen-Res. = type: cell-based; settings: Staphylococcus aureus; Table 1, S. aureus Pen-Res.; read-out: MIC
Source text: as §1, §2, §3, §4

S. aureus = type: cell-based; settings: Staphylococcus aureus
Source text: as §1, §2, §3, §4

Ser. marcescens = type: cell-based; settings: Serratia marcescens; Table 1, Ser. marcescens
Source text: as §1, §2, §3, §4

Str. faecalis = type: cell-based; settings: Enterococcus faecalis; Table 1, Str. faecalis
Source text: as §1, §2, §3, §4

Str. pneumoniae = type: cell-based; settings: Streptococcus pneumoniae; Table 1, Str. pneumoniae
Source text: as §1, §2, §3, §4

CC1(C)S[C@@H]2[C@H](N3C(=O)[C@@H](c4ccccc4)NC3(C)C)C(=O)N2[C@H]1C(=O)O [Hetacillin, hetacillin]
MIC (Str. pyogenes): 0.004 µg/mL (≈ 0.0103 µM) | MIC (E. Coli; first line): 1 µg/mL (≈ 2.57 µM) | MIC (E. Coli; second line): 32 µg/mL (≈ 82.2 µM) | MIC (Ent. cloacae; first line): 32 µg/mL (≈ 82.2 µM) | MIC (Ent. cloacae; second line): 63 µg/mL (≈ 162 µM) | MIC (K. pneumoniae; first line): 63 µg/mL (≈ 162 µM) | MIC (K. pneumoniae; second line): 63 µg/mL (≈ 162 µM) | MIC (Pr. mirabilis): 0.03 µg/mL (≈ 0.077 µM) | MIC (Pr. morganii): 16 µg/mL (≈ 41.1 µM) | MIC (Pr. rettgeri): 8 µg/mL (≈ 20.5 µM) | MIC (Pr. vulgaris): 0.06 µg/mL (≈ 0.154 µM) | MIC (Ps. aeruginosa; first line): 63 µg/mL (≈ 162 µM) | MIC (Ps. aeruginosa; second line): 125 µg/mL (≈ 321 µM) | MIC (S. aureus Meth-Res.): 16 µg/mL (≈ 41.1 µM) | MIC (S. aureus Pen-Res.): 125 µg/mL (≈ 321 µM) | MIC (S. aureus; Table 1, S. aureus): 0.008 µg/mL (≈ 0.0205 µM) | MIC (S. aureus; Table 1, S. aureus + 50% serum): 0.016 µg/mL | MIC (Ser. marcescens): 16 µg/mL (≈ 41.1 µM) | MIC (Str. faecalis): 0.13 µg/mL (≈ 0.334 µM) | MIC (Str. pneumoniae): 0.004 µg/mL (≈ 0.0103 µM)
